Test system: latent HIV-1 infection in LWI6 cells
Assay: Reactivation of latent HIV-1 in LWI6 reporter cells, EGFP plate based fluorometry (384-well)
Type: cell-based
Conditions: LWI6, 1×10^5 cells/well, 384-well plate
Text: Latently HIV-1 infected reporter cell lines with an increased dynamic range of the EGFP signal. An indicator cell line with HTS feasibility was generated through stable transfection with a reporter plasmid in which the HIV-1 promoter (long terminal repeat; LTR) controls the expression of EGFP. Nucleic acid sequences for HIV-1 LTR (SEQ ID NO:1) can be accessed via GenBank Accession No. X03189. All of the information, including any nucleic acid and amino acid sequences provided for HIV-1 LTR under GenBank Accession X03189 is hereby incorporated in its entirety by this reference. […] In the resulting latently infected T cell clones (LWI4, LWI6, LWI7, LRJ3, LRJ5, LRJ12), maximal EGFP expression was increased by a factor of 10 in comparison to other reporter cell lines incorporating GFP into the HIV-1 genome when analyzed by flow cytometry (FIG. 1).
Assay optimization in […] format plates. […] The need to work with low quantities of material and thus low numbers of reporter cells that are treated has to be balanced with the requirements to obtain a sufficiently high signal to background ratio to avoid false negative hits during the screen. […] Although EGFP fluorescence continued to increase up to the highest density of cells, wells with 1×10^5 cells gave a 40-fold increase of EGFP fluorescence intensity over background after 24 h, and an 80-fold increase after 48 h. […]

In the case of TNF-α, the “increase of EGFP fluorescence intensity over background” value (after 24 h) is reported as 40 fold and the “increase of EGFP fluorescence intensity over background” value (after 48 h) is reported as 80 fold.
